Source: US10294202B2, “Pyrrolidinones as herbicides” (FMC Corporation, priority 2013, dated 2019)

Tests used:
wheat = test: Test A pre-/postemergence herbicide test; type: in vivo, Triticum aestivum; conditions: Postemergence
Procedure, shortened: (§1)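 Seeds sown in loam soil/sand blend received a preemergence directed soil spray of test chemical in non-phytotoxic solvent with surfactant; postemergence plants (2–10 cm, one- to two-leaf stage) were sprayed with the same formulation. After about 10 days in greenhouse, injury was rated visually versus untreated controls, 0 (no effect) to 100 (complete control).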

sedge, umbrella = test: Test B flooded paddy test; type: in vivo, Cyperus difformis; conditions: 500 g ai/ha, Flood; scale of 0 to 100 where 0 is no effect and 100 is complete control
Procedure, shortened: (§2)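 Plants were grown to the 2-leaf stage, then pots were flooded to 3 cm above the soil and compound was applied directly into the paddy water, with that depth held throughout. After 13 to 15 days in a greenhouse, injury was rated visually against untreated controls on a 0 to 100 scale (100 = complete control).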

galium = test: Test A postemergence herbicide test; type: in vivo, Galium aparine
Procedure, shortened: (§3)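 Potted in loam soil/sand blend; postemergence application at 1–2 leaf stage (2–10 cm). Greenhouse ~10 d. Visual injury vs untreated, 0–100 scale; 100 = complete control.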

ragweed = test: Test A pre-/postemergence herbicide test; type: in vivo, Ambrosia elatior; conditions: for Plant response rating, Ragweed: 0 to 100 scale
Procedure, shortened: as §1

barnyardgrass [1] = test: Test B flooded paddy test; type: in vivo, Echinochloa crus-galli; conditions: 500 g ai/ha, Flood; scale of 0 to 100 where 0 is no effect and 100 is complete control
Procedure, shortened: as §2

barnyardgrass [2] = test: Test A pre-/postemergence herbicide test; type: in vivo, Echinochloa crus-galli
Procedure, shortened: as §1

ducksalad = test: Test B flooded paddy test; type: in vivo, Heteranthera limosa; conditions: 500 g ai/ha, Flood; scale of 0 to 100 where 0 is no effect and 100 is complete control
Procedure, shortened: as §2

giant foxtail = test: Test A pre-/postemergence herbicide test; type: in vivo, Setaria faberii; conditions: for Plant response rating, Foxtail, Giant: 0 to 100 scale
Procedure, shortened: as §1

pigweed = test: Test A pre-/postemergence herbicide test; type: in vivo, Amaranthus retroflexus; conditions: for Plant response rating, Pigweed: 0 to 100 scale
Procedure, shortened: as §1

ryegrass, Italian = test: Test A pre-/postemergence herbicide test; type: in vivo, Lolium multiflorum; conditions: for Plant response rating, Ryegrass, Italian: 0 to 100 scale
Procedure, shortened: as §1

kochia = test: Test A pre-/postemergence herbicide test; type: in vivo, Kochia scoparia; conditions: for Plant response rating, Kochia: 0 to 100 scale
Procedure, shortened: as §1

rice = test: Test B flooded paddy test; type: in vivo, Oryza sativa; conditions: 500 g ai/ha, Flood; scale of 0 to 100 where 0 is no effect and 100 is complete control
Procedure, shortened: as §2

blackgrass = test: Test A postemergence herbicide test; type: in vivo, Alopecurus myosuroides
Procedure, shortened: as §3

corn = test: Test A pre-/postemergence herbicide test; type: in vivo, Zea mays; conditions: Postemergence
Procedure, shortened: as §1

[3] = 125 g ai/ha, 0 to 100 scale, 0 no effect, 100 complete control
[4] = 125 g ai/ha, visual rating, 0 no effect, 100 complete control, approximately 10 days, preemergence
[5] = Postemergence, 125 g ai/ha, 0 no effect, 100 complete control

Cc1ccc(C2CNC(=O)C2C(=O)Nc2ccccc2Cl)cc1F (racemic) [Compound 148]
0: Plant response rating, Wheat (wheat; [3]) | Wheat plant response rating (0 to 100 scale, 0 is no effect, 100 is complete control) (wheat; 500 g ai/ha) | Plant response rating, Sedge, Umbrella (sedge, umbrella) | Plant response rating, Galium (galium; [3]) | Plant response rating, Ragweed (ragweed; [4]) | Plant response rating, Ragweed (ragweed; [5]) | Ragweed plant response rating (0 to 100 scale, 0 is no effect, 100 is complete control) (ragweed; Postemergence, 500 g ai/ha) | Plant response rating, Ragweed (ragweed; preemergence, 500 g ai/ha) | Plant response rating, Pigweed (pigweed; [4]) | Plant response rating, Pigweed (pigweed; [5]) | Pigweed plant response rating (0 to 100 scale, 0 is no effect, 100 is complete control) (pigweed; Postemergence, 500 g ai/ha) | Plant response rating, Pigweed (pigweed; preemergence, 500 g ai/ha) | Plant response rating, Ryegrass, Italian (ryegrass, Italian; [4]) | Plant response rating, Ryegrass, Italian (ryegrass, Italian; [5]) | Ryegrass, Italian plant response rating (0 to 100 scale, 0 is no effect, 100 is complete control) (ryegrass, Italian; Postemergence, 500 g ai/ha) | Plant response rating, Ryegrass, Italian (ryegrass, Italian; preemergence, 500 g ai/ha) | Plant response rating, Kochia (kochia; [5]) | Kochia plant response rating (0 to 100 scale, 0 is no effect, 100 is complete control) (kochia; Postemergence, 500 g ai/ha) | Plant response rating, Rice (rice) | Plant response rating, Blackgrass (blackgrass; [3]) | Blackgrass plant response rating (0 to 100 scale, 0 is no effect, 100 is complete control) (blackgrass; 500 g ai/ha) | Plant response rating, Corn (corn; [3]) | Corn plant response rating (0 to 100 scale, 0 is no effect, 100 is complete control) (corn; 500 g ai/ha)
50: Plant response rating, Barnyardgrass (barnyardgrass [2]; Postemergence, 125 g ai/ha, 0 to 100 scale, 0 no effect, 100 complete control)
40: Galium plant response rating (0 to 100 scale, 0 is no effect, 100 is complete control) (galium; 500 g ai/ha) | Plant response rating, Barnyardgrass (barnyardgrass [1]) | Plant response rating, Foxtail, Giant (giant foxtail; [4])
20: Plant response rating, Foxtail, Giant (giant foxtail; [5])
100: Plant response rating, Ducksalad (ducksalad)
90: Barnyardgrass plant response rating (0 to 100 scale, 0 is no effect, 100 is complete control) (barnyardgrass [2]; Postemergence, 500 g ai/ha) | Plant response rating, Barnyardgrass (barnyardgrass [2]; preemergence, 500 g ai/ha, 0 to 100 scale (0 no effect, 100 complete control)) | Plant response rating, Foxtail, Giant (giant foxtail; preemergence, 500 g ai/ha)
30: Plant response rating, Barnyardgrass (barnyardgrass [2]; 125 g ai/ha, visual rating, 0 to 100 scale, 0 no effect, 100 complete control, approximately 10 days, preemergence) | Foxtail, Giant plant response rating (0 to 100 scale, 0 is no effect, 100 is complete control) (giant foxtail; Postemergence, 500 g ai/ha) | Plant response rating, Kochia (kochia; [4]) | Plant response rating, Kochia (kochia; preemergence, 500 g ai/ha)
